Series [1] has as its system w794 DNA. Nature of the series: DNA alkylation studies, cell-free (thermally induced strand cleavage, PAGE autoradiography). The format is biochemical. Particulars: for DNA alkylation: no deliberate activation. The protocol: DNA-agent incubation at 23° C. for 2 hours (h), removal of unbound agent by EtOH precipitation, and 30 minute thermolysis (100° C.) followed by 8% denaturing PAGE and autoradiography. Lane 1, control DNA; lanes 2-5, Sanger G, C, A, and T sequencing reactions; lane 6, Compound (+)-4 (1×10^−5 M); lane 7, Compound (+)-7 (1×10^−5 M); lanes 8-9, Compound (+)-7 (1×10^−5 M) incubated at 37° C. with 1 M L-glutathione for 12 hours and 24 hours.
DNA-agent incubation at 23° C. for 2 hours (h), removal of unbound agent by EtOH precipitation, and 30 minutes thermolysis (100° C.) followed by 8% denaturing PAGE and autoradiography.
Lane 1, control DNA; lanes 2-5, Sanger G, C, A, and T sequencing reactions; lanes 6-8, Compound (+)-4 (1×10^−4 to 1×10^−6 M); lanes 9-11, Compound (+)-6 (1×10^−2 to 1×10^−4 M).
Lane 1, control DNA; lanes 2-5, Sanger G, C, A, and T sequencing reactions; lanes 6-11, Compound (+)-4 (1×10^−4M, t=2, 4, 6, 8, 24, 48 hours); lanes 12-15, Compound (+)-6 (1×10^−2M, t=2, 4, 6, 8 hours).
Lane 1, control DNA; lanes 2-5, Sanger G, C, A, and T sequencing reactions; lane 6, Compound (+)-4 (1×10^−4 M); lanes 7-9, Compound (±)-19 (1×10^−3 to 1×10^−5 M).
See Boger et al., Tetrahedron 1991, 47:2661-2682 for full details of the DNA alkylation assay. The DNA alkylation reactions were conducted at […] with 5′-^32P-end-labeled w794 DNA, which contains a single major alkylation site for the natural products.

The test system of series [2] is L1210 (ATCC CCL-219) mouse lymphocytic leukemia cells. Nature of the series: Cell growth inhibition assay (phosphatase readout). The format is cell-based. The protocol: Compounds were tested for their cell growth inhibition of L1210 (ATCC CCL-219) mouse lymphocytic leukemia cells. A population of cells (>1×10^6 cells/mL as determined with a hemocytometer) was diluted with an appropriate amount of Dulbecco-modified Eagle Medium (DMEM, Gibco) containing 10% fetal bovine serum (FBS, Gibco) to a final concentration of 30,000 cells/mL. To each well of a 96-well plate (Corning® Costar®), 100 μL of the cell-media solution was added with a multichannel pipette. The cultures were incubated at 37° C. in an atmosphere of 5% CO2 and 95% humidified air for 24 hours. The test compounds were added to the plate as follows: test substances were diluted in DMSO to a concentration of 1 mM and 10-fold serial dilutions were performed on a separate 96-well plate. Fresh culture medium (100 μL) was added to each well of cells to constitute 200 μL of medium per well followed by 2 μL of each test agent. Compounds were tested in duplicate (≧2 times) at six concentrations between 0-100 nM or 0-1000 nM. Following addition, cultures were incubated for an additional 72 hours.
A phosphatase assay was used to establish the IC50 values as follows: the media in each cell was removed and 100 μL of phosphatase solution (100 mg phosphatase substrate in 30 mL 0.1 M NaOAc, pH 5.5, 0.1% Triton® X-100 buffer) was added to each well. The plates were incubated at 37° C. for 5 minutes. After the given incubation time, 50 μL of 0.1 N NaOH was added to each well and the absorption at 405 nm was determined using a 96 well plate reader. As the absorption is directly proportional to the number of living cells, the IC50 values were calculated and the reported values represent of the average of ≧4 determinations (SD±10%).

Series [3] concerns L1210 murine leukemia cells. Nature of the series: In vivo antitumor activity, L1210 implanted ip in B6D2F1 mice. Also noted: species or system mouse. The protocol:
[Wolfe et al., J. Med. Chem. 2012, 55:5878-5886.] Therefore, the preliminary evaluation of the in vivo antitumor activity of the cyclic N—O pro-drugs was assessed with Compound (+)-6 and was conducted alongside seco-CBI-indole2 (Compound 4) in an antitumor model consisting of L1210 murine leukemia cells implanted ip in B6D2F1 mice traditionally used to initially compare new duocarmycin derivatives (Table 3, below).
B6D2F1 mice were injected intraperitoneally (i.p.) with syngeneic L1210 cells (1×10^6) on day 0. Ten mice were randomly assigned to control vehicle or treatment groups for Compounds (+)-4 and (+)-6 at doses of 60, 100, 250, and 500 μg/kg/inj for Compounds (+)-4 or 60, 200, 500, 1000, and 2500 μg/kg/inj for Compounds (+)-6. Compounds (+)-4 and (+)-6 were formulated in 100% DMSO. Both compounds were injected i.p. on days 1, 5, and 9. Following injection of tumor cells, animals were monitored daily and weighed two times per week. Percent survival (T/C) for treated and control groups were determined by dividing the total survival days for each treatment group by the total survival days for the control group and multiplying×100. All animal studies were carried out in the animal facilities of The University of Kansas Medical Center with strict adherence to the guidelines of the IACUC Animal Welfare Committee of KUMC (IACUC approval #2009-1837).

Series [4] in a line: Stability to basic conditions (NaHCO3). The format is physicochemical. The following applies: 23° C.
Series [5] in a line: physchem. The following applies: buffer.
[6] abbreviates: Mus musculus, L1210, 72 h, read-out: IC50 L1210 natural, natural enantiomer, 72 hours.
Setting [7] is: Mus musculus, L1210, 72 h, read-out: IC50 L1210 unnatural, unnatural enantiomer, 72 hours.
Where [8] appears, read: 60 μg/kg i.p. on days 1, 5 and 9.
Setting [9] is: 100 μg/kg i.p. on days 1, 5 and 9.
The mark [10] stands for this setting: 250 μg/kg i.p. on days 1, 5 and 9.
The mark [11] stands for this setting: 500 μg/kg i.p. on days 1, 5 and 9.
[12] abbreviates: 1000 μg/kg i.p. on days 1, 5 and 9.
[13] abbreviates: 2500 μg/kg i.p. on days 1, 5 and 9.

“Also recorded” adds a separate entry of the source. Where two headings read alike, the source gives them in different places. Some results are limits rather than exact numbers.

By IC50 is commonly meant the midpoint of a concentration-inhibition curve.

Take `CNC(=O)c1cccc2c3c(cc(O)c12)N(C(=O)c1cc2cc(NC(=O)c4cc5ccccc5[nH]4)ccc2[nH]1)CC3CCl` (racemic) [Compound 19, 3-(5-(1H-Indole-2-carboxamido)-1H-indole-2-carbonyl)-1-(chloromethyl)-5-hydroxy-N-methyl-1,2-dihydrobenzo-[e]indole-6-carboxamide]: the DNA alkylation result in series [1] is “alkylate DNA in a manner analogous to Compound (+)-4”. In addition, the “times less potent than seco-(+)-CBI-indole2” value in series [2] (L1210, racemic mixture) worked out at 2.5 times. In addition, in series [2] (Mus musculus, L1210, 72 h, read-out: IC50 L1210, tested as a racemic mixture, 72 hours), the IC50 was 0.073 nM.
Consider `CC(C)(C)OC(=O)N1CC2CC23C1=CC(=O)c1ccccc13` (single isomer, unassigned; (+)) [(+)-N—Boc-CBI, reference compound], for which the IC50 was determined as 80 nM in series [2] (natural enantiomer, 72 hours, read-out: IC50 L1210 natural) and 900 nM in series [2] (unnatural enantiomer, 72 hours, read-out: IC50 L1210 unnatural).
With `COC(=O)c1cc2c([nH]1)C(=O)C=C1N(C(=O)c3cc4cc(OC)c(OC)c(OC)c4[nH]3)C[C@H]3CC123` (stereo partly shown) [Compound 1, Duocarmycin SA, reference compound], the concentration for half-maximal inhibition (IC50) was 0.01 nM in series [2] (setting [6]) and 0.1 nM in series [2] (setting [7]).
For `COc1c(O)c2c(c3cc(C(=O)N4CCc5c4c(O)c(OC)c4[nH]c(C(=O)N6C[C@H]7CC78C6=CC(=O)c6[nH]cc(C)c68)cc54)[nH]c13)CCN2C(N)=O` (stereo partly shown) [Compound 2, CC-1065, reference compound] the same measures were 0.02 nM and 0.02 nM.
With `O=C(Nc1ccc2[nH]c(C(=O)N3C[C@@H](CCl)c4c3cc(O)c3ccccc43)cc2c1)c1cc2ccccc2[nH]1` [Compound 4, seco-CBI-indole2, reference compound], the half-maximal inhibitory concentration (IC50) in series [2] (Mus musculus, L1210, natural enantiomer, 72 hours, read-out: IC50 L1210 natural) is 0.03 nM; in series [2] (Mus musculus, L1210, unnatural enantiomer, 72 hours, read-out: IC50 L1210 unnatural) it was 0.9 nM. In addition, the “MSP (Mean Survival Period)” value in series [3] (setting [8]) is recorded as >50 days; in series [3] (setting [9]) it was 6.4 days; in series [3] (setting [10]) it was 3.7 days; in series [3] (setting [11]), 3.0 days. In addition, the “Surviving Mice (live animals after 366 days)” value in series [3] (setting [8]) is recorded as 1/10; in series [3] (setting [9]) it was 0/10; in series [3] (setting [10]), 0/10; in series [3] (setting [11]) it was 0/10. For the same compound, the “T/C = Treated/Control (MSP) × 100” value in series [3] (setting [8]) was >284; in series [3] (setting [9]) it was 36; in series [3] (setting [10]) it was 21; in series [3] (setting [11]), 17.
Consider `CN1Oc2cc3c(c4cccc(c24)C1=O)C(CCl)CN3C(=O)OC(C)(C)C` (stereo not shown) [Compound 12, tert-Butyl 10-(Chloromethyl)-5-methyl-4-oxo-9,10-dihydro-4H-pyrrolo[3′,2′:5,6]naphtho[1,8-de][1,2]oxazine-8(5H)-carboxylate], for which, in series [4] (NaHCO3 in THF, MeOH, DMF/H2O), the “time unreactive toward NaHCO3” value is listed as “more than 5 days”. The figures for the IC50 in series [2] (setting [6]) and in series [2] (setting [7]) were 850 nM and > 1000 nM, respectively. This compound showed a half-life in series [5] of 24 h.
In the case of `CC(C)(C)OC(=O)N1CC(CCl)c2c1cc1c3c(cccc23)C(=O)NO1` (stereo not shown) [Compound 15, tert-Butyl 10-(Chloromethyl)-4-oxo-9,10-dihydro-4H-pyrrolo[3′,2′:5,6]naphtho[1,8-de][1,2]oxazine-8(5H)-carboxylate], the half-life is 70 h in series [4] (NaHCO3 in MeOH, read-out: t1/2 with NaHCO3 (converted)) and 2 h in series [5]. The “stability to NaHCO3” value in series [4] (NaHCO3 in THF/H2O) is listed as “stable”. The half-inhibitory concentration (IC50) in series [2] (setting [6]) is 650 nM; in series [2] (setting [7]) it was > 1000 nM.
As for `CN1Oc2cc3c(c4cccc(c24)C1=O)[C@H](CCl)CN3C(=O)c1cc2cc(NC(=O)c3cc4ccccc4[nH]3)ccc2[nH]1` [Compound (+)-6, N-(2-(10-(Chloromethyl)-5-methyl-4-oxo-5,8,9,10-tetrahydro-4H-pyrrolo[3′,2′:5,6]naphtho[1,8-de][1,2]oxazine-8-carbonyl)-1H-indol-5-yl)-1H-indole-2-carboxamide], the DNA alkylation entry in series [1] is on record as “incapable of alkylating DNA”. The “difference in potency between Compound (+)-6 and Compound (+)-7” value in series [2] (L1210) was 3 fold. Also, the IC50 in series [2] (setting [6]) is 0.99 nM; in series [2] (read-out: IC50 L1210 natural, natural enantiomer, 72 hours) it was ~1 nM. Also, the “T/C = Treated/Control (MSP) × 100” value in series [3] (200 μg/kg i.p. on days 1, 5 and 9) is reported as 386; in series [3] (setting [11]), > 1142; in series [3] (setting [12]), > 1130; in series [3] (setting [13]) it was > 1500. Besides, the “Surviving Mice (live animals after 366 days)” value is reported as 4/10 in series [3] (setting [11]), 4/10 in series [3] (setting [12]) and 6/10 in series [3] (setting [13]). For the same compound, in series [3] (366 days (1 year)), the “delayed toxicity in long term survivors” value is given as “no evidence of a delayed toxicity”. Also, the “tolerance at the injection sites” value in series [3] (i.p. administration, versus free drug) is reported as “tolerated at the injection sites of the animals much better than the free drug”. Further, the “dosing permitted over that of the free drug” value in series [3] (versus free drug) is reported as ≥ 40 fold. Besides, the “in vivo potency relative to the free drug” value in series [3] (versus free drug) is listed as ≤ 3 fold.
`O=C(Nc1ccc2[nH]c(C(=O)N3C[C@@H](CCl)c4c3cc3c5c(cccc45)C(=O)NO3)cc2c1)c1cc2ccccc2[nH]1` [Compound (+)-7, N-(2-(10-(Chloromethyl)-4-oxo-5,8,9,10-tetrahydro-4H-pyrrolo[3′,2′:5,6]naphtho[1,8-de][1,2]oxazine-8-carbonyl)-1H-indol-5-yl)-1H-indole-2-carboxamide]: the “DNA alkylation after thiol activation” value in series [1] (incubated with 1 M L-glutathione at 37° C.) is “results in DNA alkylation; also recorded: slow DNA alkylation reaction”. Also, the DNA alkylation result in series [1] was “No DNA alkylation; also recorded: failed to alkylate DNA”.

For the origin of these results see US9586974B2, “Cyclic N-acyl O-amino phenol CBI derivative” (THE SCRIPPS RESEARCH LINSTITUTE, priority 2013, dated 2017).
